{"source": "patent US20030108964A1", "about": "“Caspase-inhibitory-factor(cif)and uses thereof” (priority 2002, published 2003)", "key": {"[1]": {"tested_on": "R-Csp-6-mediated apoptosis in primary cultures of human neurons", "assay": "TUNEL cell death of primary human neurons microinjected with recombinant active caspase-6", "assay_type": "cell-based", "settings": "for effect on 17-β-estradiol neuroprotective effect against caspase-6: 10 nM added to 17-β-estradiol", "protocol": "(§1) Primary cultures of neurons were established from 12-14 week old foetal brains, according to ethical regulations of the Medical Research Council of Canada and approved by McGill University. Institutional Review Board. Briefly, cortical and subcortical brain tissue is minced, dissociated in 0.25% trypsin for 15 minutes at 37° C. Trypsin is inactivated with 10% serum and 0.1 mg/ml deoxyribonuclease I added before triturating to completely dissociate the cells. The mixture is successively passed through 130 μm and 70 μm filters, and cells plated at 3×10^6/ml on poly-L-lysine coated tissue culture dishes or ACLAR™ (33C; 5 mm; Allied Chemical Corp.) coverslips in phenol-free minimal essential media in Earle's balanced salt solution containing 0.225% sodium bicarbonate, 1 mM sodium pyruvate, 2 mM L-glutamine, 0.1% dextrose, 1×antibiotic Pen-Strep (all products from Gibco-BRL) and 5% decomplemented fetal bovine serum (Hyclone).\nThe cells attach rapidly and establish intricate neuritic networks within 3 days. Fluorodeoxyuridine (FdU) is added at 1 mM to prevent proliferation of dividing cells. Typically, the culture is composed of 90-95% neurons and 5-10% astrocytes that survive in culture for 4-6 weeks. Experiments on neurons and astrocytes were conducted at 10 days of culture.\nGlass micropipettes of 1.0 mm OD and 0.5 mm ID thin-walled glass capillaries with microfilaments (Borosilicate with filament MTW100F-4, World Precise Instrument Co.) were pulled with a Flaming/Brown micropipette puller (P-87) with a tip diameter of […]. Recombinant active caspase-6 or caspase-3 (R-Csp-6 and R-Csp-3 from Pharmingen) were prepared in caspase active buffer containing 20 mM piperazine-N,N′-βis-(2-ethanesulfonic acid) (PIPES), 100 mM NaCl, 10 mM dithiothreitol (DTT), 1 mM EDTA, 0.1% 3-[(3-cholamidopropyl)-dimethylammonio]-2-hydroxy-1-propanesulfonic acid (CHAPS), 10% sucrose, pH 7.2. R-Csp-6 was co-injected with Dextran Texas Red (DTR; at 100 μg/ml) (Cedarlane Laboratories Ltd.) as a fluorescent marker to recognize injected neurons. […] Microinjections were done with the Eppendorf Microinjector 5246 and MIS-5000 Burleigh micromanipulator; injection pressure of 100 hPa, compensation pressure of 50 hPa, and injection time of 0.1 s. The injected volume was 1 nl/shot.\nNeurons were fixed in fresh 4% paraformaldehyde/4% sucrose in PBS and permeabilized with 0.1% Triton X-100 in 0.1% sodium citrate. Cell death was detected by TUNEL (TdT-mediated dUTP Nick End Labeling) using the Cell Death Kit I (Roche Molecular Biochemicals) as described by the manufacturer. The percentage of neuronal cell death was determined by the ratio of the number of DTR-TUNEL-double-positive neurons over the total number of DTR-positive neurons.\n(§2) All were obtained from Sigma and dissolved as stock solutions in 100% ethanol. Dilutions of 1/1000 was made in culture media immediately before use. The media was changed with fresh solution every 48 hours. Controls received an equivalent amount of ethanol.\n(§3) Cycloheximide (Sigma) was made at 1 mg/ml in distilled-water and diluted at 5 and 20 μg/ml in culture media before treatment. To assess the efficiency of cycloheximide as an inhibitor of translation at these concentrations, neurons were labeled with 100 μCi/ml of ^35S-methionine (Easy Tag NEN-DUPONT) for 6 hours in the absence or presence of cycloheximide. Proteins were extracted in NP-40 lysis buffer, immunoprecipitated and separated by 10% polyacrylamide gel electrophoresis. To test the effect of cycloheximide on the neuroprotective effect of 17-β-estradiol, neurons were microinjected with R-Csp-6 and incubated with 10 nM 17-β-estradiol in the absence or presence of cycloheximide for 48 hours."}, "[2]": {"tested_on": "recombinant active caspase-6 (R-Csp-6)", "assay": "CIF activity: protein extracts of treated neurons added to recombinant active caspase-6 in vitro (Ac-VEID-AFC)", "assay_type": "cell-based, human", "protocol": "as §1, §2\nas §3, with “hours. To test the effect of cycloheximide on 17-β-estradiol induction of CIF, neurons were incubated with 10 nM 17-β-estradiol in the absence or presence of cycloheximide for 6 hours.” for “hours.”\nAfter treatment, neuron proteins were extracted in caspase lysis buffer (50 mM Hepes pH 7.4, 0.1% CHAPS, 1 mM DTT, 0.1 mM EDTA) for 10 minutes on ice followed by microcentrifugation to remove insoluble material. Protein concentration was determined by bicinchoninic acid (BCA) assay (Pierce). Proteins (10 μg/100 μl assay) were added to 10 ng recombinant active caspase (Pharmingen or BioMol) in caspase assay buffer (20 mM Pipes, 30 mM NaCl, 10 mM DTT, 1 mM EDTA, 0.1% CHAPS, 10% sucrose pH 7.2) and 68.5 μM Ac-VEID-AFC for caspase-6, Ac-DEVD-AFC for caspase-3 and caspase-7, and Ac-IETD-AMC for caspase-8 (BioMol). The caspase-6 activity was measured at 37° C. every 2 minutes for 1 hour to determine the linear range of activity. Based on an AFC or AMC standard curve, the amount of released AFC or AMC was measured and the specific activity of the caspase determined as nmoles released AFC or AMC/pg protein/minute."}, "[3]": {"tested_on": "Endogenous Csp-6 in human breast cancer cell line, MCF7", "assay": "Endogenous Csp-6 specific activity in treated MCF7 extract", "assay_type": "cell-based", "settings": "MCF7 extract treated 48 hours; for Endogenous Csp-6 Specific Activity: control 6.34 (0.02); for Csp-6 activity remaining (% of control): control 100%"}, "[4]": {"tested_on": "R-Csp-6", "assay": "R-Csp-6 specific activity in presence of treated MCF7 extract", "assay_type": "cell-based, human", "settings": "MCF7 extract treated 48 hours; for R-Csp-6 Specific Activity: control 6.15 (0.7); for R-Csp-6 activity remaining (% of control): control 100%", "protocol": "After treatment, neuron proteins were extracted in caspase lysis buffer (50 mM Hepes pH 7.4, 0.1% CHAPS, 1 mM DTT, 0.1 mM EDTA) for 10 minutes on ice followed by microcentrifugation to remove insoluble material. Protein concentration was determined by bicinchoninic acid (BCA) assay (Pierce). […] Based on an AFC or AMC standard curve, the amount of released AFC or AMC was measured and the specific activity of the caspase determined as nmoles released AFC or AMC/pg protein/minute."}, "[5]": {"tested_on": "protein translation in neurons", "assay": "35S-methionine labelling of neurons to assess inhibition of translation", "assay_type": "cell-based, human", "settings": "5-20 μg/ml", "protocol": "as §3, with “hours. To test the effect of cycloheximide on 17-β-estradiol induction of CIF, neurons were incubated with 10 nM 17-β-estradiol in the absence or presence of cycloheximide for 6 hours.” for “hours.”"}, "[6]": {"tested_on": "endogenous neuronal caspase-6", "assay": "Endogenous caspase-6 activity in treated neurons", "assay_type": "cell-based, human", "settings": "neurons treated for 48 hours", "protocol": "as §1, with “(Hyclone). […] All were obtained from Sigma and dissolved as stock solutions in 100% ethanol. Dilutions of 1/1000 was made in culture media immediately before use. […] Protein concentration was determined by bicinchoninic acid (BCA) assay (Pierce). […] Based on an AFC or AMC standard curve, the amount of released AFC or AMC was measured and the specific activity of the caspase determined as nmoles released AFC or AMC/pg protein/minute.” for “(Hyclone).”"}, "[7]": {"tested_on": "Human astrocytes extracts, CIF activity", "assay": "CIF activity in extracts of treated human astrocytes", "assay_type": "cell-based", "settings": "10 nM, 6 hours"}, "[8]": {"tested_on": "caspase-3-mediated astrocytic cell death", "assay": "TUNEL cell death of human astrocytes microinjected with caspase-3", "assay_type": "cell-based", "settings": "10 nM"}, "[9]": {"settings": "10 μM with 10 nM 17-β-estradiol"}}, "data": [{"smiles": "CC/C(=C(\\c1ccccc1)c1ccc(OCCN(C)C)cc1)c1ccccc1", "note": "[tamoxifen]", "values": [{"measurement": "effect on 17-β-estradiol neuroprotective effect against caspase-6", "setting": "[1]; 48 hours", "result": "inhibits 17-β-estradiol effect"}, {"measurement": "block of neuroprotective function of 17-β-estradiol against caspase-6", "setting": "[1]; [9]", "result": "efficiently blocked"}, {"measurement": "effect on 17-β-estradiol induction of CIF", "setting": "[2]; 10 nM added to 17-β-estradiol", "result": "inhibits 17-β-estradiol effect"}, {"measurement": "block of 17-β-estradiol induced CIF activation", "setting": "[2]; [9]", "result": "efficiently blocked"}]}, {"smiles": "C[C@]12CC[C@@H]3c4ccc(O)cc4CC[C@H]3[C@@H]1CC[C@H]2O", "note": "[17-α-estradiol]", "values": [{"measurement": "protection against R-Csp-6", "setting": "[1]; 10 nM, 48 hours, 5 pg R-Csp-6/cell", "result": "do not protect significantly"}, {"measurement": "inhibition of active caspase-6 by extracts from treated neurons", "setting": "[2]; 1, 10, or 100 nM, neurons treated 6 hours", "result": "neither 1, 10, or 100 nM 17-α-estradiol significantly inhibit active caspase-6"}, {"measurement": "Endogenous Csp-6 Specific Activity", "setting": "[3]; 10 nM", "result": "7.13 (0.06) pmoles/μg protein/min."}, {"measurement": "Csp-6 activity remaining (% of control)", "setting": "[3]; 10 nM", "result": 112, "unit": "%"}, {"measurement": "R-Csp-6 Specific Activity", "setting": "[4]; 10 nM", "result": "7.19 (0.01) nmoles/μg protein/min."}, {"measurement": "R-Csp-6 activity remaining (% of control)", "setting": "[4]; 10 nM", "result": 117, "unit": "%"}]}, {"smiles": "C[C@@H]1C[C@@H]([C@H](O)CC2CC(=O)NC(=O)C2)C(=O)[C@@H](C)C1", "note": "[cycloheximide]", "values": [{"measurement": "effect on 17-β-estradiol-mediated neuroprotection", "setting": "[1]; 5-20 μg/ml with 10 nM 17-β-estradiol, 48 hours", "result": "no effect"}, {"measurement": "effect on 17-β-estradiol induction of CIF", "setting": "[2]; 5-20 μg/ml with 10 nM 17-β-estradiol, 6 hours", "result": "no effect"}, {"measurement": "protein translation in neurons", "setting": "[5]", "result": "greatly inhibit protein translation"}]}, {"smiles": "CC/C(=C(/CC)c1ccc(O)cc1)c1ccc(O)cc1", "note": "[DES, diethylstilbesterol]", "values": [{"measurement": "effect on 17-β-estradiol neuroprotective effect against caspase-6", "setting": "[1]; 48 hours", "result": "inhibits"}, {"measurement": "induction of neuroprotection in neurons", "setting": "[1]; 10 nM, alone, 48 hours", "result": "nor induce neuroprotection"}, {"measurement": "effect on 17-β-estradiol induction of CIF", "setting": "[2]; 10 nM added to 17-β-estradiol", "result": "inhibits 17-β-estradiol induction of CIF"}, {"measurement": "induction of CIF in neurons", "setting": "[2]; 10 nM, alone", "result": "Neither DES nor EE induce CIF"}]}, {"smiles": "C[C@]12CC[C@@H]3c4ccc(O)cc4CC[C@H]3[C@@H]1CC[C@@H]2O", "note": "[17-β-estradiol]", "values": [{"measurement": "level of apoptosis of microinjected neurons (TUNEL)", "setting": "[1]; 10 nM, 48 hours, 5 pg R-Csp-6/cell, R-Csp-6 alone 50%", "result": 20, "unit": "%"}, {"measurement": "protection against caspase-6", "setting": "[1]; 10 nM, time study, until 8 days", "result": 50, "unit": "%"}, {"measurement": "protection against caspase-6 mediated apoptosis", "setting": "[1]; 0.01 or 0.1 nM", "result": "not 0.01 or 0.1 nM"}, {"measurement": "protection against caspase-6 mediated apoptosis", "setting": "[1]; 1 to 100 nM", "result": "significant protection"}, {"measurement": "exposure time at which neuronal apoptosis is decreased to maximal levels", "setting": "[1]; hormone washed away, incubated until 48 hours", "result": 10, "unit": "min"}, {"measurement": "inhibition of recombinant active caspase-6 in vitro by neuronal protein extracts from treated neurons", "setting": "[2]", "result": "inhibit recombinant active caspase-6 in vitro"}, {"measurement": "inhibition of the activity of R-Csp-6 by extracts from treated neurons", "setting": "[2]; neurons treated 6 hours, 1-100 nM, 10 μg protein", "result": "40-60%"}, {"measurement": "time of exposure at which CIF activity is maximal", "setting": "[2]; time response curve", "result": 1, "unit": "h"}, {"measurement": "time of exposure to neurons until CIF activity is induced", "setting": "[2]; time response curve", "result": "≤ 10", "unit": "min"}, {"measurement": "endogenous caspase-6 activity in treated neurons", "setting": "[6]", "result": "inhibits endogenous caspase-6 activity"}, {"measurement": "Endogenous Csp-6 Specific Activity", "setting": "[3]; 1 nM", "result": "4.02 (0.02) pmoles/μg protein/min."}, {"measurement": "Csp-6 activity remaining (% of control)", "setting": "[3]; 1 nM", "result": 63, "unit": "%"}, {"measurement": "Endogenous Csp-6 Specific Activity", "setting": "[3]; 10 nM", "result": "4.84 (0.03) pmoles/μg protein/min."}, {"measurement": "Csp-6 activity remaining (% of control)", "setting": "[3]; 10 nM", "result": 76, "unit": "%"}, {"measurement": "Endogenous Csp-6 Specific Activity", "setting": "[3]; 100 nM", "result": "5.06 (0.01) pmoles/μg protein/min."}, {"measurement": "Csp-6 activity remaining (% of control)", "setting": "[3]; 100 nM", "result": 80, "unit": "%"}, {"measurement": "R-Csp-6 Specific Activity", "setting": "[4]; 1 nM", "result": "3.82 (0.04) nmoles/μg protein/min."}, {"measurement": "R-Csp-6 activity remaining (% of control)", "setting": "[4]; 1 nM", "result": 62, "unit": "%"}, {"measurement": "R-Csp-6 Specific Activity", "setting": "[4]; 10 nM", "result": "3.25 (0.03) nmoles/μg protein/min."}, {"measurement": "R-Csp-6 activity remaining (% of control)", "setting": "[4]; 10 nM", "result": 53, "unit": "%"}, {"measurement": "R-Csp-6 Specific Activity", "setting": "[4]; 100 nM", "result": "4.30 (0.1) nmoles/μg protein/min."}, {"measurement": "R-Csp-6 activity remaining (% of control)", "setting": "[4]; 100 nM", "result": 70, "unit": "%"}, {"measurement": "CIF activation in astrocytes", "setting": "[7]", "result": "CIF is not activated in astrocytes"}, {"measurement": "prevention of caspase-3 mediated astrocytic cell death", "setting": "[8]", "result": "could not prevent"}]}]}
